Reference: patent publication US8329617B2, “Compositions and methods for synergistic manipulation of plant and insect defenses” (Plant Bioscience Limited, priority 2007, dated 2012)

What was measured:
[1] = test system: Myzus persicae, US1L; test: Bioassay: M. persicae protein on four pepper plants treated with cis-jasmone and PBO (1, 5 or 10 adults per plant); type: in vivo; conditions: for Av. Total Insect Protein μg: Bioassay, M. persicae (US1L), average of weeks 1 to 3; for μg (Av) Total Protein (M. persicae): four pepper plants, 7 days
Protocol: (§1) In all bioassay experiments the control plants were sprayed with deionised water. Initially seven treatments were used (Table 1) to test all chemical variables. All treatments were applied hydraulically with a spray simulator after which the plants were separated according to treatment (with cis-jasmone controls being separated) and left for 2 hours prior to insect application.
Analysis of protein in each treatment was conducted using Bradford Reagent: the data were analysed using the computer programme ‘GraFit’ (Erithacus software, Berkeley). To calculate the calibration curve a single logarithmic curve was used with regression analysis taking the values of the treatment wells (averages of the three readings taken: technical replicates). […]
To investigate developmental/fecundity effects of cis-jasmone+/−PBO E on Myzus persicae when applied to sweet peppers, one adult was added to the plants. Aphids were brushed from all plants and each leaf checked individually to ensure none remained. The aphid mass for each treatment was assessed for total protein (total from all four plants in the treatment) using Bradford reagent. The amount of aphid protein present on the plants 7 days after treatment was measured.
(§2) Myzus persicae was applied to sweet peppers at the rate of five adults were added per plant. Aphids were brushed from all plants and each leaf checked individually to ensure none remained. The aphid mass for each treatment was assessed for total protein (total from all four plants in the treatment) using Bradford reagent. The amount of aphid protein present on the plants 7 days after treatment was measured (for further information see Example 3).
as §2, with “persicae were” for “persicae was”, “of ten” for “of five”, “adults” for “adults were added”

[2] = test system: aphid (M. persicae); test: Bioassay: M. persicae protein on potato, pepper and black mustard plants treated with BABA and/or PBO; type: in vivo, Myzus persicae; conditions: 3 adult apterous aphids per plant, 3 mM BABA root drench, PBO E spray, 7 days
Protocol: In all bioassay experiments the control plants were sprayed with deionised water. Initially seven treatments were used (Table 1b) to test all chemical variables. […] Analysis of protein in each treatment was conducted using Bradford Reagent: the data were analysed using the computer programme ‘GraFit’ (Erithacus software, Berkeley). To calculate the calibration curve a single logarithmic curve was used with regression analysis taking the values of the treatment wells (averages of the three readings taken: technical replicates). Laboratory tests were undertaken to compare effects of combined and single treatments of PBO and BABA on control of aphid (M. persicae) on potato, pepper, and black mustard and whitefly (B. tabaci) on cotton and tomato. All tests included untreated and blank (water) controls, and both single and combined applications of PBO and BABA. […] To investigate developmental/fecundity effects of BABA+/−PBO E (see Table 1) on Myzus persicae when applied to plants, adults were added to the plants and then using Bradford reagent, the amount of aphid protein present on the plants 7 days after treatment was measured. Esterase levels were also tested after the same interval to check for the possible induction of metabolic enzymes when using BABA. Aphids were brushed from all plants and each leaf checked individually to ensure none remained. The aphid mass for each treatment was weighed before total protein was assessed (total from all five plants in the treatment).

[3] = test system: B. tabaci; test: B. tabaci pupae protein on cotton plants treated with PBO and/or microencapsulated cis-jasmone; type: in vivo, Bemisia tabaci; conditions: for Protein WF (Av): five cotton plants per treatment, 5 adult female whiteflies per plant, ~16 days
Protocol: (§3) A new method for the investigation of the development of whitefly to the pupal stage on tomatoes and cotton was used. […] These were checked for protein after ˜16 days using Bradford reagent.
(§4) Adults were added to the plant 2 h after treatment, and removed after 24 h. The eggs laid were then left for 16-18 days until they reached the pupal stage. The total pupal protein on the plant was tested using the Bradford reagent.

[4] = test system: Bemisia tabaci, GUA MIX; test: Bioassay: B. tabaci pupae protein on one tomato plant treated with cis-jasmone and PBO; type: in vivo; conditions: for μg (Av) Total Protein (B. tabaci pupae): one tomato plant, ten adult whiteflies, ~16 days
Protocol: as §1
Analysis of protein in each treatment was conducted using Bradford Reagent: the data were analysed using the computer programme ‘GraFit’ (Erithacus software, Berkeley). To calculate the calibration curve a single logarithmic curve was used with regression analysis taking the values of the treatment wells (averages of the three readings taken: technical replicates).
as §3, §4

[5] = test system: Aphis gossypii; test: A. gossypii protein on cotton plants treated with propyl gallate and cis-jasmone; type: in vivo; conditions: five cotton plants, 3 adult apterous aphids per plant, 7 days
[6] = test system: esterase; conditions: topical application of 1 ul of 0.1% PBO
Protocol: The esterase activity of individuals from a clone of resistant Myzus persicae was measured at zero time, then at hourly intervals following in vivo topical application of 1 ul of 0.1% PBO. […] The assay would also be continued to determine the time taken for the esterase levels to return to normal.

[7] = test system: whitefly (B. tabaci); test: Bioassay: B. tabaci pupae protein on cotton and tomato plants treated with BABA and/or PBO; type: in vivo, Bemisia tabaci; conditions: 3 mM BABA root drench, PBO E spray
Protocol: In all bioassay experiments the control plants were sprayed with deionised water. Initially seven treatments were used (Table 1b) to test all chemical variables. […] Analysis of protein in each treatment was conducted using Bradford Reagent: the data were analysed using the computer programme ‘GraFit’ (Erithacus software, Berkeley). To calculate the calibration curve a single logarithmic curve was used with regression analysis taking the values of the treatment wells (averages of the three readings taken: technical replicates). Laboratory tests were undertaken to compare effects of combined and single treatments of PBO and BABA on control of aphid (M. persicae) on potato, pepper, and black mustard and whitefly (B. tabaci) on cotton and tomato. All tests included untreated and blank (water) controls, and both single and combined applications of PBO and BABA. […] Adults were added to the plant 2 days after treatment, and removed after 24 h. The eggs laid were then left for 16-18 days until they reached the pupal stage. The total pupal protein on the plant was tested using the Bradford reagent.

CCCCOCCOCCOCc1cc2c(cc1CCC)OCO2 [PBO, 2-(2-butoxyethoxy)ethyl 6-propylpiperonyl ether]
Av. Total Insect Protein μg ([1]; 1 adult/plant): 10.710 µg | Av. Total Insect Protein μg ([1]; 5 adults/plant): 21.500 µg | Av. Total Insect Protein μg ([1]; 10 adults/plant): 35.200 µg | effect of addition of PBO to cis-jasmone on reduction of insect protein (in words) ([1]; M. persicae on pepper, five adults per plant): potentiates the effect of cis-jasmone | reduction in total aphid protein (in words) ([1]; M. persicae on pepper, small scale assays, 10, 5 or 1 adult aphid per plant): no significant reduction | μg (Av) Total Protein (M. persicae) ([1]; five adult apterous aphids per plant, week 1): 23.60 µg | μg (Av) Total Protein (M. persicae) ([1]; five adult apterous aphids per plant, week 2): 17.29 µg | μg (Av) Total Protein (M. persicae) ([1]; five adult apterous aphids per plant, week 3): 23.60 µg | μg (Av) Total Protein (M. persicae) ([1]; one adult apterous aphid per plant, week 1): 13.64 µg | μg (Av) Total Protein (M. persicae) ([1]; one adult apterous aphid per plant, week 2): 8.50 µg | μg (Av) Total Protein (M. persicae) ([1]; one adult apterous aphid per plant, week 3): 10.01 µg | μg (Av) Total Protein (M. persicae) ([1]; ten adult apterous aphids per plant, week 1): 38.91 µg | μg (Av) Total Protein (M. persicae) ([1]; ten adult apterous aphids per plant, week 2): 33.2 µg | μg (Av) Total Protein (M. persicae) ([1]; ten adult apterous aphids per plant, week 3): 33.5 µg | Protein A (Av) ([2]; five black mustard plants, week 1): 19.30 µg | Protein A (Av) ([2]; five black mustard plants, week 2): 18.90 µg | Protein A (Av) ([2]; five black mustard plants, week 3): 18.00 µg | Protein A (Av) ([2]; five pepper plants, week 1): 22.10 µg | Protein A (Av) ([2]; five pepper plants, week 2): 21.60 µg | Protein A (Av) ([2]; five pepper plants, week 3): 23.50 µg | Protein A (Av) ([2]; five potato plants, week 1): 17.60 µg | Protein A (Av) ([2]; five potato plants, week 2): 22.30 µg | Protein A (Av) ([2]; five potato plants, week 3): 19.20 µg | effect of addition of PBO to microencapsulated cis-jasmone (in words) ([3]; B. tabaci on cotton): potentiates the effect of this new microencapsulated cis-jasmone | Protein WF (Av) ([3]; week 1): 0.167 µg | Protein WF (Av) ([3]; week 2): 0.16 µg | Protein WF (Av) ([3]; week 3): 0.17 µg | effect of adding PBO to the cis-jasmone treatment (in words) ([4]; B. tabaci on tomato, bioassay): clear and highly significant (p<0.001) synergistic effect | Av. Total Insect Protein μg ([4]; Bioassay, Bemisia tabaci (GUA MIX), average of weeks 1 to 3): 0.419 µg | μg (Av) Total Protein (B. tabaci pupae) ([4]; week 1): 0.28 µg | μg (Av) Total Protein (B. tabaci pupae) ([4]; week 2): 0.28 µg | μg (Av) Total Protein (B. tabaci pupae) ([4]; week 3): 0.3 µg | Protein A (Av) ([5]; week 1): 20.05 µg | Protein A (Av) ([5]; week 2): 15.1 µg | Protein A (Av) ([5]; week 3): 16.3 µg | time delay for esterase inhibition ([6]; individual cotton bollworms): 5 h | optimal time delay for esterase inhibition ([6]; individual whiteflies): 10 h | Protein WF (Av) ([7]; cotton plants, ~16 days, week 1): 0.14 µg | Protein WF (Av) ([7]; cotton plants, ~16 days, week 2): 0.14 µg | Protein WF (Av) ([7]; cotton plants, ~16 days, week 3): 0.15 µg | Protein WF (Av) ([7]; tomato plants, week 1): 0.23 µg | Protein WF (Av) ([7]; tomato plants, week 2): 0.33 µg | Protein WF (Av) ([7]; tomato plants, week 3): 0.32 µg
